Source: patent publication US7109193B2, “Tricyclic diazepines tocolytic oxytocin receptor antagonists” (Wyeth, priority 2001, dated 2006)

Molecular target: T1, human vasopressin V2 receptor subtype (Homo sapiens, UniProt P30518)
T1 construct: host or cells: CHO cells (pZeoSV vector)
Assay: Vasopressin binding in Chinese Hamster Ovary cell membranes expressing human vasopressin V2 subtype receptors
Details: 100 nM, CHO cell membranes, [3H]arginine vasopressin, values without parentheses
How it was run: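 Radioligand displacement on membranes from CHO cells stably expressing human V2 receptor, 25 to 50 μg protein/well, in 50 mM Tris-HCl pH 7.4 with MgCl2, BSA and protease inhibitors. [^3H]arginine vasopressin (8 nM working solution) incubated 60 min at room temperature; bound label measured by filtration and scintillation counting.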

T1 sequence (P30518 whole entry): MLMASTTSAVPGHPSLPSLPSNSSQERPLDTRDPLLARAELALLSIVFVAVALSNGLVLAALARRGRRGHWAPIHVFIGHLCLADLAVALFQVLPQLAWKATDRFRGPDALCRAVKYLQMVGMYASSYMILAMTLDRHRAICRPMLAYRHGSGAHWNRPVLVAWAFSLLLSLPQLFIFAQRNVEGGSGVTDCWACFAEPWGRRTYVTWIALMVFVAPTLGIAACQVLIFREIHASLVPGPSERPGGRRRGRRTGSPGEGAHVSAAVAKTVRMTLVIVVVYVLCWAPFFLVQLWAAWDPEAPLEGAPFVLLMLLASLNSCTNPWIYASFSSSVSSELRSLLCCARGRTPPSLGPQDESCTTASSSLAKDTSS

| inhibition at 0.1 µM [%] | SMILES | V2 % inhibition @ 100 nM [%] |
| --- | --- | --- |
| 12 | COc1cccc(-c2ccc(C(=O)N3Cc4ccc(C(=O)N5CCC(N6CCCC6)CC5)n4Cc4ccccc43)cc2C)c1 [Example 139, {10-[(3′-Methoxy-2-methyl[1,1′-biphenyl]-4-yl)carbonyl]-10,11-dihydro-5H-pyrrolo[2,1-c][1,4]benzodiazepin-3-yl}[4-(1-pyrrolidinyl)-1-piperidinyl]methanone] | – |
| 13 | COc1cc(C(=O)N2Cc3ccc(C(=O)NCCCn4ccnc4)n3Cc3ccccc32)ccc1-c1cccc2ccccc12 [Example 131, N-[3-(1H-Imidazol-1-yl)propyl]-10-[3-methoxy-4-(1-naphthyl)benzoyl]-10,11-dihydro-5H-pyrrolo[2,1-c][1,4]benzodiazepine-3-carboxamide] | – |
| – | COc1ccccc1-c1ccc(C(=O)N2Cc3ccc(C(=O)N4CC[C@@H](N(C)C)C4)n3Cc3ccccc32)cc1 [Example 279, [(3R)-3-(Dimethylamino)pyrrolidinyl]{10-[(2′-methoxy[1,1′-biphenyl]-4-yl)carbonyl]-10,11-dihydro-5H-pyrrolo[2,1-c][1,4]benzodiazepin-3-yl}methanone] | 17 |
| – | COc1ccccc1-c1ccc(C(=O)N2Cc3ccc(C(=O)N4CC[C@@H](N(C)C)C4)n3Cc3ccccc32)cc1OC [Example 282, {10-[(2,2′-Dimethoxy[1,1′-biphenyl]-4-yl)carbonyl]-10,11-dihydro-5H-pyrrolo[2,1-c][1,4]benzodiazepin-3-yl][(3R)-3-(dimethylamino)pyrrolidinyl]methanone] | −17 |
| – | COc1cccc(-c2ccc(C(=O)N3Cc4ccc(C(=O)NCCC5CCCN5C)n4Cc4ccccc43)cc2C)c1 (stereo not shown) [Example 164, 10-[(3′-Methoxy-2-methyl[1′1′-biphenyl]-4-yl)carbonyl]-N-[2-(1-methyl-2-pyrrolidinyl)ethyl]-10,11-dihydro-5H-pyrrolo[2,1-c][1,4]benzodiazepine-3-carboxamide] | 16 |
| 5 | COc1cc(-c2ccccc2C)c(Cl)cc1C(=O)N1Cc2ccc(C(=O)NCCCn3ccnc3)n2Cc2ccccc21 [Example 129, 10-[(6-Chloro-3-methoxy-2′-methyl[1,1′-biphenyl]-4-yl)carbonyl]-N-[3-(1H-imidazol-1-yl)propyl]-10,11-dihydro-5H-pyrrolo[2,1-c][1,4]benzodiazepine-3-carboxamide] | – |
| – | COC(=O)c1ccc2c(c1)N(C(=O)c1ccc(-c3ccccc3C(F)(F)F)c(C)c1)Cc1cccn1C2 [Example 26, Methyl 10-{[2-methyl-2′-trifluoromethyl-[1,1′-biphenyl]-4-yl]carbonyl}-10,11-dihydro-5H-pyrrolo[2,1-c][1.4]benzodiazepine-8-carboxylate] | 3 |
| 19 | COc1ccccc1-c1ccc(C(=O)N2Cc3ccc(C(=O)N(C)CCCN(C)C)n3Cc3ccccc32)cc1OC [Example 107, 10-[(2,2′-Dimethoxy[1,1′-biphenyl]-4-yl)carbonyl]-N-[3-(dimethylamino)propyl]-N-methyl-10,11-dihydro-5H-pyrrolo[2,1-c][1,4]benzodiazepine-3-carboxamide] | – |
| 32 | COc1ccccc1-c1ccc(C(=O)N2Cc3ccc(C(=O)N4CCC(N5CCCCC5)CC4)n3Cc3ccccc32)cc1C [Example 112, {10-[(2-Methyl-2′-methoxy[1,1′-biphenyl]-4-yl)carbonyl]-10,11-dihydro-5H-pyrrolo[2,1-c][1,4]benzodiazepin-3-yl}[4-(1-piperidinyl)-1-piperidinyl]methanone] | – |
| 22 | COc1cc(C(=O)N2Cc3ccc(C(=O)N4CCC(N5CCCCC5)CC4)n3Cc3ccccc32)ccc1-c1ccccc1C [Example 116, {10-[(2-Methoxy-2′-methyl[1,1′-biphenyl]-4-yl)carbonyl]-10,11-dihydro-5H-pyrrolo[2,1-c][1,4]benzodiazepin-3-yl}[4-(1-piperidinyl)-1-piperidinyl]methanone] | – |
| 20 | COc1ccccc1-c1ccc(C(=O)N2Cc3ccc(C(=O)NCCN4CCCCC4)n3Cc3ccccc32)cc1C [Example 149, 10-[(2′-Methoxy-2-methyl[1,1′-biphenyl]-4-yl)carbonyl]-N-[2-(1-piperidinyl)ethyl]-10,11-dihydro-5H-pyrrolo[2,1-c][1,4]benzodiazepine-3-carboxamide] | – |
| -5 | COc1cc(C(=O)N2Cc3ccc(C(=O)N4CCC(N5CCCC5)CC4)n3Cc3ccccc32)ccc1-c1ccccc1C [Example 142, {10-[(2-Methoxy-2′-methyl[1,1′-biphenyl]-4-yl)carbonyl]-10,11-dihydro-5H-pyrrolo[2,1-c][1,4]benzodiazepin-3-yl}[4-(1-pyrrolidinyl)-1-piperidinyl]methanone] | – |
| 7 | COc1cccc(-c2cc(OC)c(C(=O)N3Cc4ccc(C(=O)N5CCC(N6CCCC6)CC5)n4Cc4ccccc43)cc2Cl)c1 [Example 143, {10-[(6-Chloro-3,3′-dimethoxy[1,1′-biphenyl]-4-yl)carbonyl]-10,11-dihydro-5H-pyrrolo[2,1-c][1,4]benzodiazepin-3-yl}[4-(1-pyrrolidinyl)-1-piperidinyl]methanone] | – |
| 29 | COc1ccccc1-c1ccc(C(=O)N2Cc3ccc(C(=O)N4CCC(N5CCCC5)CC4)n3Cc3ccccc32)cc1 [Example 140, {10-[(2′-Methoxy[1,1′-biphenyl]-4-yl)carbonyl]-10,11-dihydro-5H-pyrrolo[2,1-c][1,4]benzodiazepin-3-yl}[4-(1-pyrrolidinyl)-1-piperidinyl]methanone] | – |
| – | COc1ccccc1-c1ccc(C(=O)N2Cc3ccc(C(=O)N4CCC[C@H]4CN4CCCC4)n3Cc3ccccc32)cc1C [Example 259, {10-[(2′-Methoxy-2-methyl[1,1′-biphenyl]-4-yl)carbonyl]-10,11-dihydro-5H-pyrrolo[2,1-c][1,4]benzodiazepin-3-yl}[(2S)-2-(1-pyrrolidinylmethyl)pyrrolidinyl]methanone] | −3 |
| 12 | Cc1ccccc1-c1ccc(C(=O)N2Cc3ccc(C(=O)N4CCC(N5CCCCC5)CC4)n3Cc3ccccc32)cc1 [Example 115, {10-[(2′-Methyl[1,1′-biphenyl]-4-yl)carbonyl]-10,11-dihydro-5H-pyrrolo[2,1-c][1,4]benzodiazepin-3-yl}[4-(1-piperidinyl)-1-piperidinyl]methanone] | – |
| – | COc1cccc(-c2cc(OC)c(C(=O)N3Cc4ccc(C(=O)N5CC[C@@H](N(C)C)C5)n4Cc4ccccc43)cc2Cl)c1 [Example 275, {10-[(6-Chloro-3,3′-dimethoxy[1,1′-biphenyl]-4-yl)carbonyl]-10,11-dihydro-5H-pyrrolo[2,1-c][1,4]benzodiazepin-3-yl}[(3R)-3-(dimethylamino)pyrrolidinyl]methanone] | 21 |
| 12 | COc1cccc(-c2ccc(C(=O)N3Cc4ccc(C(=O)N5CCC(N6CCCC6)CC5)n4Cc4ccccc43)cc2OC)c1 [Example 146, {10-[(2,3′-Dimethoxy[1,1′-biphenyl]-4-yl)carbonyl]-10,11-dihydro-5H-pyrrolo[2,1-c][1,4]benzodiazepin-3-yl}[4-(1-pyrrolidinyl)-1-piperidinyl]methanone] | – |
| 1 | Cc1cc(C(=O)N2Cc3ccc(C(=O)NCCCn4ccnc4)n3Cc3ccccc32)ccc1-c1ccccc1C(F)(F)F [Example 135, N-[3-(1H-Imidazol-1-yl)propyl]-10-{[2-methyl-2′-(trifluoromethyl)[1,1′-biphenyl]-4-yl]carbonyl}-10,11-dihydro-5H-pyrrolo[2,1-c][1,4]benzodiazepine-3-carboxamide] | – |
